The values that follow come from patent US4940780A, “Basically substituted phenylacetonitriles, their preparation and drugs containing these compounds” (BASF Aktiengesellschaft, priority 1986, dated 1990).

One assay concerns the target T1, calcium channel (Cavia porcellus, UniProt A0A286X7I0).
T1 construct: membrane preparations of guinea pig skeletal muscle; from tissue; host or cells: guinea pig skeletal muscle, membrane preparation
Nature of the assay: Bond to the calcium channel: displacement of the specific (S)-^3H-devapamil bond in membrane preparations of guinea pig skeletal muscle. The class given is binding. As to conditions: guinea pig skeletal muscle membranes; 1 nM (S)-^3H-devapamil; 60 minutes, room temperature; 10^-10 to 10^-6 M test substance. As for the experimental part: (a) Bond to the calcium channel Displacement of the specific (S)-^3 H-devapamil bond in membrane preparations of guinea pig skeletal muscle
(§1) Membrane homogenate was incubated for 60 minutes at room temperature with increasing concentrations (from 10^-10 to 10^-6 M) of test substance and a fixed concentration of 1 nM of radioligand ((S)-^3 H-devapamil or ^3 H-ketanserine). The bound and the free radioligand were separated by filtration over a glass fiber filter, and the amount of radioligand retained on the filter was determined by liquid scintillation measurement. 2 tests with 3 batches were carried out.
(§2) The competition constants (Ki values in nM) were calculated by nonlinear regression analysis on an IBM computer using the program Ligand from Munson and Rodbard (Analytical Biochemistry 107 (1980), 220).

A further assay deals with T2, serotonin-S2-receptor (Rattus norvegicus, UniProt P14842).
T2 construct: membrane preparations of cerebral cortex of the rat; from tissue; host or cells: rat cerebral cortex, membrane preparation
T2 sequence (P14842 whole entry): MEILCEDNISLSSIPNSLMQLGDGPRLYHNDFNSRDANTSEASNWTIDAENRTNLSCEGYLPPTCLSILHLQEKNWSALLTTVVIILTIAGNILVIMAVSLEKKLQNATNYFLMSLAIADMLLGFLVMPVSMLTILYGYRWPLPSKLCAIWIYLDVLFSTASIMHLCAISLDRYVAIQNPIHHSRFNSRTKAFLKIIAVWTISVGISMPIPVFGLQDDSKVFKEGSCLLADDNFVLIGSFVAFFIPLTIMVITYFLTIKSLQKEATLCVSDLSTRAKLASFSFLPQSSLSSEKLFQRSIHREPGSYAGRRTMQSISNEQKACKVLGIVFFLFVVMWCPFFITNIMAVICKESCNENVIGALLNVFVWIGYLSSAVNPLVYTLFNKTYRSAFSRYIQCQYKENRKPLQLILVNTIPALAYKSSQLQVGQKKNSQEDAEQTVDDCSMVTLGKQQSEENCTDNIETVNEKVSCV
Briefly: Bond to the serotonin-S2-receptor: displacement of the specific ^3H-ketanserine bond in membrane preparations of cerebral cortex of the rat. The class given is binding. As to conditions: rat cerebral cortex membranes; 1 nM ^3H-ketanserine; 60 minutes, room temperature; 10^-10 to 10^-6 M test substance. The protocol: (b) Bond to the serotonin-S2 -receptor
Displacement of the specific ^3 H-ketanserine bond in membrane preparations of cerebral cortex of the rat
as §1, §2

Structures are written as SMILES. Counter-ions that a name gives are not always drawn.

T1 sequence (A0A286X7I0 1-1867): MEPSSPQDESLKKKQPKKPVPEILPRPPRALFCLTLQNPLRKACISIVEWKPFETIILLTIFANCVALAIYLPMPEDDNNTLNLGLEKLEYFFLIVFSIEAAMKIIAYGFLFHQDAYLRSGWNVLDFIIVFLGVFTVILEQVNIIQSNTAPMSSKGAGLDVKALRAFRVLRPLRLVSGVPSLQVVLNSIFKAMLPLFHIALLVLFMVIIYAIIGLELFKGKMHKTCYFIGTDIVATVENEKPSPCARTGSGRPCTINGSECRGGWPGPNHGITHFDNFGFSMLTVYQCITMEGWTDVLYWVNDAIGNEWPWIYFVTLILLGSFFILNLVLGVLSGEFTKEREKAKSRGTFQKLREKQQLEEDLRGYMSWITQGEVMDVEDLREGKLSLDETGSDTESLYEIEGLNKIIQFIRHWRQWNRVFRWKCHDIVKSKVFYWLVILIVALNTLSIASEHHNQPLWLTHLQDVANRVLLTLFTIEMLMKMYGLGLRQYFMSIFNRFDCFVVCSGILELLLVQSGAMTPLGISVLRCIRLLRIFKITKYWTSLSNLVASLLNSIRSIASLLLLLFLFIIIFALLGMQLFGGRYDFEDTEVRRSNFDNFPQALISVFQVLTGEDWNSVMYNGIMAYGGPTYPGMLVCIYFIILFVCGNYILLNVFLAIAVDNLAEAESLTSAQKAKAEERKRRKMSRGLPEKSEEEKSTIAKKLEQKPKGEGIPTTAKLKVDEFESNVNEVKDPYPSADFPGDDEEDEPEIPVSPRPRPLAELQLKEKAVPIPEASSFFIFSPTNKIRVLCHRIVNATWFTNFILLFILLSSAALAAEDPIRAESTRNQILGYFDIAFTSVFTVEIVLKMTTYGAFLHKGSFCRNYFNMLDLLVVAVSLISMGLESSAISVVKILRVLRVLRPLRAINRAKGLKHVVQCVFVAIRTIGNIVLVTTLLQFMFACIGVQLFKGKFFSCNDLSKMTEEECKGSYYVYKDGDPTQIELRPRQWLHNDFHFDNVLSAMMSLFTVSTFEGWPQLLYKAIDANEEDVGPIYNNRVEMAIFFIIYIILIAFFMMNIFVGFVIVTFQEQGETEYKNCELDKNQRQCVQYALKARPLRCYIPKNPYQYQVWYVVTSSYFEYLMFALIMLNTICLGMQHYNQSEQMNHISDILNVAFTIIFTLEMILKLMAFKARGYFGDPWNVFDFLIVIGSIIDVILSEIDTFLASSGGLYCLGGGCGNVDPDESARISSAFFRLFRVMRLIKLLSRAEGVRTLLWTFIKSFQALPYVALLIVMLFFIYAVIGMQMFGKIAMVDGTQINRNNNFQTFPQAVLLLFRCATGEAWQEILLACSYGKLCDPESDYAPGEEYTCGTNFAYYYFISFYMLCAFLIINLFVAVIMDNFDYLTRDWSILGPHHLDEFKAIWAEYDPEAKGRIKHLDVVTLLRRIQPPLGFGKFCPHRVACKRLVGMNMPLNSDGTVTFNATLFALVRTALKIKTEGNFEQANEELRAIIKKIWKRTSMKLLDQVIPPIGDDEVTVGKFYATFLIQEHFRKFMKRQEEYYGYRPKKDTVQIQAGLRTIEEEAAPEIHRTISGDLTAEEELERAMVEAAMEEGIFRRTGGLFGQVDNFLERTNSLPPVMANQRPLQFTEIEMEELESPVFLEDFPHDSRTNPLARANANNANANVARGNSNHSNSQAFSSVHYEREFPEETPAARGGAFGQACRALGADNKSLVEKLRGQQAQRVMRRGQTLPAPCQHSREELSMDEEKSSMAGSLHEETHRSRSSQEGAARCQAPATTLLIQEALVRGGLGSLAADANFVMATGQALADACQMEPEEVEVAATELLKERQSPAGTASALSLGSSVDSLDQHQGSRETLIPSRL

As a reminder, the Ki is a dissociation constant, usually derived from enzyme kinetics or from competition with a known ligand. Regarding `COc1cc(C(C#N)(CCCN(C)CCC2CCCCC2)C(C)C)cc(OC)c1OC` (stereo not drawn) [Example 11, 5-[N-methyl-N-(2-cyclohexyl)-ethyl]-amino-2-(3,4,5-trimethoxyphenyl)-2-isopropylvaleronitrile], the figures for the inhibitory constant (Ki) on calcium channel and at serotonin-S2-receptor were 5.8 nM and 10.7 nM, respectively. Take `COc1ccc(CCN(C)CCCC(C#N)(c2ccc(OC)c(OC)c2)C(C)C)cc1OC` (stereo not drawn) [Verapamil, verapamil, reference compound]: the Ki at serotonin-S2-receptor amounted to 177 nM. As to `COc1cccc(C(C#N)(CCCN(C)CCC2CCCCC2)C(C)C)c1` (stereo not drawn) [Example 1, 5-[N-methyl-N-(2-cyclohexyl)-ethyl]-amino-2-(3-methoxyphenyl)-2-isopropylvaleronitrile], the Ki at calcium channel was found to be 16.2 nM; on serotonin-S2-receptor, 5 nM.

Regarding `CCCCCCN(C)CCCC(C#N)(c1cc(OC)c(OC)c(OC)c1)C(C)C` (stereo not drawn) [Example 23, 5-[N-methyl-N-(n-hexyl)]-amino-2-(3,4,5-trimethoxyphenyl)-2-isopropylvaleronitrile hydrochloride], the Ki was 11.6 nM at calcium channel and 48.4 nM at serotonin-S2-receptor. Taken in the same sequence, the figures for `CCCCCCCCN(C)CCCC(C#N)(c1cc(OC)c(OC)c(OC)c1)C(C)C` (stereo not drawn) [Example 4, 5-[N-methyl-N-(n-octyl)]-amino-2-(3,4,5-trimethoxyphenyl)-2-isopropylvaleronitrile] were 5.2 nM and 26.4 nM.

As to `CCOc1cc(OCC)cc(C(C#N)(CCCN(C)CCC2CCCCC2)C(C)C)c1` (stereo not drawn) [Example 5, 5-[N-methyl-N-(2-cyclohexyl)-ethyl]-amino-2-(3,5-diethoxyphenyl)-2-isopropylvaleronitrile], the Ki was 11.9 nM at calcium channel and 20 nM on serotonin-S2-receptor. Taken in the same sequence, the figures for `COc1ccc(C(C#N)(CCCN(C)CCC2CCCCC2)C(C)C)c([N+](=O)[O-])c1OC` (stereo not drawn) [Example 16, 5-[N-methyl-N-(2-cyclohexyl)ethyl]-amino-2-(2-nitro-3,4-dimethoxyphenyl)-2-isopropylvaleronitrile] were 34.2 nM and 3.6 nM. Taken in the same sequence, the figures for `CC(C)C(C#N)(CCCN(C)CCC1=CCCCC1)c1ccccc1` (stereo not drawn) [Example 18, 5-(N-methyl-N-[2-(cyclohexen-1-yl)ethyl]}-amino-2-phenyl-2-isopropylvaleronitrile] were 36.7 nM and 4 nM.

Consider `CCCCCCCCN(C)CCC[C@@](C#N)(c1cc(OC)c(OC)c(OC)c1)C(C)C` [Example 6, (S)-5-[N-methyl-N-(n-octyl)]-amino-2-(3,4,5-trimethoxyphenyl)-2-isopropylvaleronitrile], for which the Ki on calcium channel came out at 2.9 nM; on serotonin-S2-receptor, 11.2 nM. For the molecule `COc1cc([C@](C#N)(CCCN(C)CCC2CCCCC2)C(C)C)cc(OC)c1OC` [Example 13, (S)-5-[N-methyl-N-(2-cyclohexyl)-ethyl]-amino-2-(3,4,5-trimethoxyphenyl)-2-isopropylvaleronitrile hydrochloride], the Ki at calcium channel stood at 3.4 nM; on serotonin-S2-receptor, 3.3 nM. Taken in the same sequence, the figures for `COc1cc(OC)cc(C(C#N)(CCCN(C)CCC2CCCCC2)C(C)C)c1` (stereo not drawn) [Example 10, 5-[N-methyl-N-(2-cyclohexyl)-ethyl]-amino-2-(3,5-dimethoxyphenyl)-2-isopropylvaleronitrile] were 9.2 nM and 2.8 nM.

For the molecule `CCCCC=CCCN(C)CCCC(C#N)(c1cc(OC)c(OC)c(OC)c1)C(C)C` (stereo not drawn) [Example 15, 5-[N-methyl-N-(n-octen-3-yl)]-amino-2-(3,4,5-trimethoxyphenyl)-2-isopropylvaleronitrile hydrochloride], the Ki on calcium channel worked out at 7.5 nM; at serotonin-S2-receptor, 6.8 nM. In the case of `CCCCCCN(C)CCC[C@@](C#N)(c1cc(OC)c(OC)c(OC)c1)C(C)C` [Example 24, (S)-5-[N-methyl-N-(n-hexyl)]-amino-2-(3,4,5-trimethoxyphenyl)-2-isopropylvaleronitrile hydrochloride], the values for the Ki on calcium channel and at serotonin-S2-receptor were 8.6 nM and 21.1 nM, respectively. Taken in the same sequence, the figures for `CCCCCCCCCCN(C)CCCC(C#N)(c1cc(OC)c(OC)c(OC)c1)C(C)C` (stereo not drawn) [Example 2, 5-[N-methyl-N-(n-decyl)]-amino-2-(3,4,5-trimethoxyphenyl)-2-isopropylvaleronitrile] were 19.1 nM and 21 nM.
